“Also recorded” adds a separate entry of the source.
Tests used:
sarcoma cancer MOS [1] = test: live/dead cell dye imaging assay on sarcoma cancer MOS; type: cell-based; conditions: sarcoma MOS treated on Day 7 after establishment; FIG. 5F bottom panel
Excerpt: (§1) The imaging-based MOS drug assay allowed further delineating MOS 3D structures from individual stromal cells by overcoming fundamental limits of bulk assays, e.g., cell number, well-to-well variation, heterogeneity, and signal-to-noise ratio.

sarcoma cancer MOS [2] = test: CTG luminescent cell viability assay on sarcoma cancer MOS; type: cell-based; conditions: sarcoma MOS treated on Day 7 after establishment; FIG. 5F top panel
Procedure: To measure cell viability, we used the CTG luminescent cell viability assay. CellTiter-Glo 3-D reagent (Promega, catalog no. G9681) was added in a 1:1 ratio with the initial well volume ([…], of CTG reagent 96-well plates and 384-well plates, respectively). The plates were placed on a shaker for 30 min. We measured luminescence by using a plate reader for each well.
Cell viability was assessed using both metabolic and imaging parameters. For the metabolic assay, Day 0 brightfield images were used to normalize CTG measurements for each well. Total surface areas (tSA) outputted from the machine learning model were used for normalizing the plating variations. The measured CTG value of each well was then divided by these surface area ratios to determine the adjusted CTG values. These adjusted CTG values were used to generate drug response curves, e.g., viability curves for each drug condition.
as §1

CRC #5 = CRC #5 model; for sizes of CRC #5 MOS: FIG. 5A top panel; for drug response curve by median CAM/EtH dye ratios as compared to CTG based assay: FIG. 5C; for cytostatic vs. cytotoxic drug effect: from size, CAM/EtH ratio and CTG
Excerpt: (§2) The plates were scanned using the Celigo imaging cytometer and its software. We collected the brightfield images on the day (day 0) of the drug treatment and on the day right before performing the CellTiter-Glo (CTG) assay. Upon inserting the plate, images were set to be acquired on brightfield, green, and red fluorescence channels. The brightfield channel was used to focus the device and ensure the MOS boundaries were crisp. The green (live cell) fluorescence channel exposure time was then adjusted to ensure pixel intensity was below 200 across the control triplicate wells to avoid overexposure. This process was repeated for the red (dead cell) fluorescence channel in the positive control, killing condition triplicate wells. After scanning the plate, the stitched images of each well were exported in tiff format for the downstream imaging analysis.
(§3) We performed the live and dead cell staining on the same day prior to the CTG assay. For 96 well plates, a working dye solution of 20 μM Ethidium Homodimer-2 (Thermo Fisher, Cat. No. E3599) and 5 μM Calcein AM (Thermo Fisher, catalog No. C3100MP) was prepared by adding 1 mM Calcein AM, 1 mM Ethidium Homodimer-2, and CRC media in a 1:8:191 ratio. For 384-well plates, the working dye solution of 10 μM Ethidium Homodimer-2 and 2.5 μM Calcein AM was prepared by adding 1 mM Calcein AM, 1 mM Ethidium Homodimer-2, and colorectal cancer (CRC) media in a 1:8:391 ratio. After the solution was prepared, 11 μL and 10 μL of dye solution were added to each well on the 96-well and 384-wells plates, respectively, to yield a final well concentration of 2 μM Ethidium Homodimer-2 and 0.5 μM Calcein AM. The plates were then incubated for 45 min at 37° C.
(§4) Therefore, in studies involving the ratio of live-cell stain to dead-cell stain, we increased the predicted object mask to capture all the dead-stain fluorescence signal. The size increase was performed using one iteration of the dilate algorithm in OpenCV with a kernel size of 10×10. Any other MOSs detected by the machine learning model that overlap with this expanded region were removed before the integrated fluorescence was computed.
For the live and dead cell dyes-based imaging assay, the integrated live cell dye (Calcein AM) and dead cell dye (Eth) signals for each segmented object were determined. To assess drug response at individual MOS level, the integrated intensities, or the ratios of Calcein AM/EtH, were shown on the scatter plot or histogram. The correlation of dose-dependent drug response with the median ratios of the integrated live/dead cell dye intensities from each well were computed and plotted.
(§5) To further increase the resolution and power of MOS drug assay pipeline, we developed an orthogonal approach by spiking a combination of live-cell (Calcein AM, CAM) and dead-cell (Ethidium Homodimer II, EtH) dyes (FIG. 5A; scale bar of 200 μm) into the drug assay plates prior to performing the CTG assay. We were able to quantitatively measure the integrated intensities of the CAM and EtH dyes in addition to MOS sizes.

CRC #6 = test: imaging-based MOS drug assay (MOS size, live/dead CAM/EtH dyes) on CRC #6; type: cell-based; conditions: CRC #6 model
Excerpt: as §2, §3, §4
For the live and dead cell dyes-based imaging assay, the integrated live cell dye (Calcein AM) and dead cell dye (Eth) signals for each segmented object were determined. […]
as §5

Nc1ccn([C@@H]2O[C@H](CO)[C@@H](O)C2(F)F)c(=O)n1 [Gemcitabine]
drug response by median values of live/dead cell ratios (sarcoma cancer MOS [1]): less sensitive response | bulk CTG readouts (raw CTG or adjusted CTG) drug response curves (sarcoma cancer MOS [2]): not able to provide any meaningful dose-dependent drug response curves

CCc1c2c(nc3ccc(O)cc13)-c1cc3c(c(=O)n1C2)COC(=O)[C@]3(O)CC [SN38]
sizes of CRC #5 MOS (CRC #5): decreased | drug response curve by median CAM/EtH dye ratios as compared to CTG based assay (CRC #5): comparable dose-dependent drug responses | cytostatic vs. cytotoxic drug effect (CRC #5): cytotoxic effect | ratios of CAM/EtH dye integrated intensities (CRC #5; live-cell Calcein AM / dead-cell Ethidium Homodimer II): only decreased in the wells treated with SN38 | drug resistant clones identified (CRC #6; FIG. 5A and FIG. 5D): identified the drug resistant clones | drug response curve by median CAM/EtH dye ratios as compared to CTG based assay (CRC #6; FIG. 5C): comparable dose-dependent drug responses

CC(=O)O[C@@]12CO[C@@H]1C[C@H](O)[C@@]1(C)C(=O)[C@H](O)C3=C(C)[C@@H](OC(=O)[C@H](O)[C@@H](NC(=O)OC(C)(C)C)c4ccccc4)C[C@@](O)([C@@H](OC(=O)c4ccccc4)[C@H]21)C3(C)C [Docetaxel]
drug response by median values of live/dead cell ratios (sarcoma cancer MOS [1]): clear dose-dependent drug response | bulk CTG readouts (raw CTG or adjusted CTG) drug response curves (sarcoma cancer MOS [2]): not able to provide any meaningful dose-dependent drug response curves

C#Cc1cccc(Nc2ncnc3cc(OCCOC)c(OCCOC)cc23)c1 [Erlotinib]
sizes of CRC #5 MOS (CRC #5): decreased | drug response curve by median CAM/EtH dye ratios as compared to CTG based assay (CRC #5): divergence between CTG plot and CAM/EtH ratio plot | cytostatic vs. cytotoxic drug effect (CRC #5): cytostatic effect; also recorded: cytostatic but not the cytotoxic effect | sensitivity of the model to the drug (CRC #6): resistant to EGFR inhibition | sizes of CRC #6 MOS (CRC #6): no obvious decrease
